Measured values from patent US8895547B2, “Substituted phenyl-oxathiazine derivatives, method for producing them, drugs containing said compounds and the use thereof” (Sanofi, priority 2011, dated 2014).
pIC50: −log10 of the molar value.

Target: T1, human 11β-HSD1 (Homo sapiens, UniProt P28845)
T1 construct: host or cells: microsome fraction
Test: Enzymatic 11beta-HSD1 test (SPA-based detection)
Assay type: biochemical
Details: human 11β-HSD1 microsome fraction, [1,2-3H]-cortisone, NADPH, 37° C. 1 hour
How it was run: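 Scintillation proximity detection: anti-cortisol antibody on SPA-PVT beads captured tritiated cortisol. The stop mix also contained 0.01 mM SSR110887 and was equilibrated 1 h at room temperature before counting. Cortisol came from [1,2-3H]-cortisone ([…]), turned over by human 11β-HSD1 microsomal protein (0.2 µg) with 0.25 mM NADPH in HEPES buffer, 37 °C, 1 h.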

T1 sequence (P28845 whole entry): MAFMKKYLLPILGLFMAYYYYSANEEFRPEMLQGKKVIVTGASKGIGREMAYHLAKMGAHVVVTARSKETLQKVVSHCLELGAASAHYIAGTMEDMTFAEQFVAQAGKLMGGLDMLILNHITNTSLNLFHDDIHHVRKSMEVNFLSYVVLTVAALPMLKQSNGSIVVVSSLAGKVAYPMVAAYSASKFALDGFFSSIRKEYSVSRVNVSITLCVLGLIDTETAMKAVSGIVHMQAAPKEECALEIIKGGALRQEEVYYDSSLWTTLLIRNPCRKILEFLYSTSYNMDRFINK

Compound | pIC50
CC1(C)OC(N[C@@H](CCO)c2ccccc2F)=NS(=O)(=O)[C@H]1c1ccc(-c2ccnc(C#N)c2)cc1 [Example 184, 4-(4-{(S)-2-[(S)-1-(2-fluorophenyl)-3-hydroxy-propylamino]-6,6-dimethyl-4,4-dioxo-5,6-dihydro-4H-4lambda6-[1,4,3]oxathiazin-5-yl}-phenyl)-pyridine-2-carbonitrile] | 8.52
CC1(C)OC(N[C@@H](CCO)c2ccccc2F)=NS(=O)(=O)[C@@H]1c1ccc(-c2ccnc(C#N)c2)cc1 [Example 185, 4-(4-{(R)-2-[(S)-1-(2-fluorophenyl)-3-hydroxy-propylamino]-6,6-dimethyl-4,4-dioxo-5,6-dihydro-4H-4lambda6-[1,4,3]oxathiazin-5-yl}-phenyl)-pyridine-2-carbonitrile] | 8.40
C[C@H](NC1=NS(=O)(=O)[C@@H](c2ccc(-c3ccnc(C#N)c3)cc2)C(C)(C)O1)c1ccccc1F [Example 186, 4-(4-{(S)-2-[(S)-1-(2-fluorophenyl)-ethylamino]-6,6-dimethyl-4,4-dioxo-5,6-dihydro-4H-4lambda6-[1,4,3]oxathiazin-5-yl}-phenyl)-pyridine-2-carbonitrile] | 7.96
C[C@H](NC1=NS(=O)(=O)[C@H](c2ccc(-c3ccnc(C#N)c3)cc2)C(C)(C)O1)c1ccccc1F [Example 187, 4-(4-{(R)-2-[(S)-1-(2-fluorophenyl)-ethylamino]-6,6-dimethyl-4,4-dioxo-5,6-dihydro-4H-4lambda6-[1,4,3]oxathiazin-5-yl}-phenyl)-pyridine-2-carbonitrile] | 8.30
CC1(C)OC(N[C@@H](CCO)c2ccccc2F)=NS(=O)(=O)[C@H]1c1ccc(-c2ccnc(C(N)=O)c2)cc1 [Example 188, 4-(4-{(S)-2-[(S)-1-(2-fluorophenyl)-3-hydroxy-propylamino]-6,6-dimethyl-4,4-dioxo-5,6-dihydro-4H-4lambda6-[1,4,3]oxathiazin-5-yl}-phenyl)-pyridine-2-carboxamide] | 8.15
CC1(C)OC(N[C@@H](CCO)c2ccccc2F)=NS(=O)(=O)[C@@H]1c1ccc(-c2ccnc(C(N)=O)c2)cc1 [Example 189, 4-(4-{(R)-2-[(S)-1-(2-fluorophenyl)-3-hydroxy-propylamino]-6,6-dimethyl-4,4-dioxo-5,6-dihydro-4H-4lambda6-[1,4,3]oxathiazin-5-yl}-phenyl)-pyridine-2-carboxamide] | 8.30
C[C@H](NC1=NS(=O)(=O)C(c2ccc(-c3ccnc(C#N)c3)nc2)C(C)(C)O1)c1ccccc1F (stereo partly drawn) [Example 190, 5-{2-[(S)-1-(2-fluorophenyl)-ethylamino]-6,6-dimethyl-4,4-dioxo-5,6-dihydro-4H-4lambda6-[1,4,3]oxathiazin-5-yl}-[2,4′]bipyridinyl-2′-carbonitril] | 6.48
C[C@H](NC1=NS(=O)(=O)C(c2ccc(-c3ccnc(C#N)c3)nc2)C(C)(C)O1)c1ccccc1F (stereo partly drawn) [Example 191, 5-{2-[(S)-1-(2-fluorophenyl)-ethylamino]-6,6-dimethyl-4,4-dioxo-5,6-dihydro-4H-4lambda6-[1,4,3]oxathiazin-5-yl}-[2,4′]bipyridinyl-2′-carbonitril] | 6.34
C[C@H](NC1=NS(=O)(=O)C(c2cccc(C(=O)N3CCOCC3)c2)C(C)(C)O1)c1ccccc1F (stereo partly drawn) [Example 192, (3-{2-[(S)-1-(2-fluorophenyl)-ethylamino]-6,6-dimethyl-4,4-dioxo-5,6-dihydro-4H-4lambda6-[1,4,3]oxathiazin-5-yl}-phenyl)-morpholin-4-yl-methanone] | 6.60
C[C@H](NC1=NS(=O)(=O)C(c2cccc(C(=O)N3CCCN(C)CC3)c2)C(C)(C)O1)c1ccccc1F (stereo partly drawn) [Example 193, (3-{2-[(S)-1-(2-fluorophenyl)-ethylamino]-6,6-dimethyl-4,4-dioxo-5,6-dihydro-4H-4lambda6-[1,4,3]oxathiazin-5-yl}-phenyl)-(4-methyl-[1,4]diazepan-1-yl)-methanone] | 6.32
C[C@H](NC1=NS(=O)(=O)C(c2cccc(C(=O)NCc3ccccn3)c2)C(C)(C)O1)c1ccccc1F (stereo partly drawn) [Example 194, 3-{2-[(S)-1-(2-fluorophenyl)-ethylamino]-6,6-dimethyl-4,4-dioxo-5,6-dihydro-4H-4lambda6-[1,4,3]oxathiazin-5-yl}-N-pyridin-2-ylmethyl-benzamide] | 7.85
C[C@H](NC1=NS(=O)(=O)C(c2ccc(-c3ccc4nc(N)sc4c3)cc2)C(C)(C)O1)c1ccccc1F (stereo partly drawn) [Example 195, 6-(4-{2-[(S)-1-(2-fluorophenyl)-ethylamino]-6,6-dimethyl-4,4-dioxo-5,6-dihydro-4H-4lambda6-[1,4,3]oxathiazin-5-yl}-phenyl)-benzothiazol-2-ylamine] | 7.40
C[C@H](NC1=NS(=O)(=O)C(c2ccc(-c3cnc(N)nc3)cc2)C(C)(C)O1)c1ccccc1F (stereo partly drawn) [Example 196, {5-[4-(2-Amino-pyrimidin-5-yl)-phenyl]-6,6-dimethyl-4,4-dioxo-5,6-dihydro-4H-4lambda6-[1,4,3]oxathiazin-2-yl}-[(S)-1-(2-fluorophenyl)-ethyl]-amine] | 8.15
